Experimental data reported in paper PMC8778678 (Viruses, 2022).
pEC50: −log10 of the molar value. “Also recorded” adds a separate entry of the source. Read-outs that look alike come from different tables or passages of the source.

How the values were obtained:
SARS-CoV-2 = system: SARS-CoV-2; parameters: method as in ref 28 = [28]; details: Vero E6 system; read-out: EC50, SARS-CoV-2 cytopathic effect; cited from earlier work
Vero E6 cells = details: African green monkey
in vitro [1] = details: African green monkey, CC50 (half-maximal cytotoxic concentration)
[2] = system: SARS-CoV-2-infected Vero E6 cells; format: cell-based; details: 4 µM, 2 h, then IHUMI-6 infection 24 h
[3] = system: SARS-CoV-2 IHUMI-6 strain; test: microbe, parasite or virus in culture; format: cell-based
[4] = system: SARS-CoV-2-infected Vero E6 cells; test: Immunofluorescence assays; format: cell-based, African green monkey; details: IHUMI-6, MOI 0.1, 48 h post-infection, versus infected untreated, p = 0.03
[5] = system: SARS-CoV-2 IHUMI-6 strain; format: cell-based; details: Vero E6 cells, according to the strain used
in vitro [6] = details: human
cathepsin L (CTSL) = system: cathepsin L (CTSL); parameters: method as in ref 16, 33 = [16]; details: cited from earlier work
[7] = system: SARS-CoV-2 hCoV-19_IPL_France strain; format: cell-based; details: Vero E6-TMPRSS2 cells, MOI 0.025, 16 h, increasing doses
[8] = system: SARS-CoV-2 BetaCoV/France/IDF0372/2020 strain; parameters: species or system K18-hACE2 mouse; details: mouse, in vivo
[9] = system: SARS-CoV-2 hCoV-19_IPL_France strain; format: cell-based; details: wild-type Vero E6 cells, MOI 0.025, 16 h, increasing doses
[10] = system: autophagic flux in Vero E6 cells; test: Western blot of autophagy markers LC3-II and p62 with or without Baf A1; format: cell-based, African green monkey; details: uninfected Vero E6 cells, 24 h, with or without Baf A1 for the last 4 h, normalized to GAPDH
cathepsin B (CTSB) = system: cathepsin B (CTSB); parameters: method as in ref 16, 33 = [16]; details: cited from earlier work

For Cc1ccc(NCCN(C)CCNc2ccnc3cc(Cl)ccc23)c2c(=O)c3ccccc3sc12 [ROC-325], the pEC50 (SARS-CoV-2) is given as 5.48.
Work on CCN(CC)CCCC(C)Nc1ccnc2cc(Cl)ccc12 (centres unmarked) [Chloroquine, chloroquine] yielded a CC50 (Vero E6 cells) of 73.2 µM and a CC50 (in vitro [1]) of 73.2 µM.
In the case of CC(C)(C)NC1CCN(c2cc(NCc3ccc(Cl)cc3)nc3ccccc23)CC1 [GNS561, Ezurpimtrostat], the “volume (area) of autophagic vacuoles in the cytoplasm” value [2] was “increase in the volume of autophagic vacuoles”, the selectivity index [3] was “moderate” and the pEC50 ([3]; Severe acute respiratory syndrome coronavirus 2, in Homo sapiens, human lung Calu-3 cells, IHUMI-6 strain, 48 h, read-out: EC50 antiviral activity) was 5.96. For the same compound, the “LC3B signal (LC3B clusters)” value [4] was “enhanced”, the “inhibitory concentration relative to remdesivir” value [5] was 50.5–200 times and the CC50 at 48 h (in vitro [6]) was 4.6 µM. The “enzymatic activity of cathepsin L” value (cathepsin L (CTSL)) was “significantly impair”, the “SARS-CoV-2 N protein level compared to untreated” value [7] was “did not alter the N protein level” and the “lung SARS-CoV-2 viral load” value [8] was “decline in SARS-CoV-2 virions in the lungs; also recorded: downward trend; also recorded: moderate”. For the same compound, the “lung tissue ultrastructure (autophagic vacuoles, multilamellar bodies)” value [8] was “autophagic vacuole accumulation with increased electron density”, the “SARS-CoV-2 N protein level compared to untreated” value [9] was “did not alter the N protein level” and the “Normalized LC3-II protein expression” value [10] was “increased in a dose-dependent manner”. For the same compound, the p62 protein level [10] was “The same observation” and the “enzymatic activity of cathepsin B” value (cathepsin B (CTSB)) was “significantly impair”.
